Results published in article PMC3334918, “Mutagenesis and Functional Studies with Succinate Dehydrogenase Inhibitors in the Wheat Pathogen Mycosphaerella graminicola” (PLoS ONE, 2012).
Where “and” joins values, the source holds several entries; their conditions need not be identical. Equal entries are not always repeated.

How the values were obtained:
Type in all cases: cell-based, Mycosphaerella graminicola
[1] = system: M. graminicola isolate IPO323; assay: UV mutagenesis and selection of resistant colonies on carboxamide amended AE agar
Description: Selection plates were produced after adding 1% of a 100× DMSO solution of the active ingredients to pre-melted AE-agar.
Cells were harvested from 4 days old V8 agar plates and conidial cells were suspended in liquid AE. 10^7 cells were spread onto carboxamide amended AE agar plates and mutagenized using UV Stratalinker 2400 (Stratagene) with 75 mJ cm^−2 or 50 mJ cm^−2. […] Selection plates were incubated in the dark at 20°C for 14 days. Visible colonies were picked from the primary selection plate and re-grown on fresh selection media for 2 additional weeks under the same conditions.

[2] = system: M. graminicola strain Flu4 (SDHC_A84V); assay: in vivo sensitivity, liquid culture growth (AE media); conditions: C_A84V, ratio IC50mutant/IC50WT
Description: (§1) To explore the sensitivity profiles conferred by amino acid substitutions at the cellular and mitochondrial level, we determined sensitivity towards 4 different compounds for 26 of the identified substitution types both in vivo using liquid culture growth (AE media) and in vitro using purified mitochondria and the succinate: Q0/DCPIP activity test (Table 3). […] Resistance factors (RF) were determined as the ratio IC50mutant/IC50WT. […] Qp site mutations are well known to influence SDH enzyme activity and stability upon catalysis, [13], [38], [41].
(§2) Conidial cells were collected from 4 day old V8 agar plates (cultured at 18°C in the dark) using liquid AE and a cell spreader. Cell density was determined and cells re-suspended to a concentration of 5×10^5 cells ml^−1 in AE media. Sterile 96 wells microtiter plates with lids (Costar) were inoculated with 198 µl of this cell suspension (10^5 cells per well) and 2 µl of inhibitor (100× in DMSO). Final inhibitor concentrations were between 0.95 nM and 1 mM with uniform 4× dilution factor steps (11 inhibitor concentrations+1 DMSO control). Plates were incubated for 6 days at 19°C in the dark before cells were re-suspended and measured for growth (OD600 nm). IC50 values were determined by non linear curve fitting on the basis of measured OD values versus log inhibitor concentrations (GraphPad Prism 5.0 software).

[3] = system: M. graminicola strain Flu1 (SDHC_S83G); assay: as above; conditions: C_S83G, ratio IC50mutant/IC50WT
Description: as §1, §2

[4] = system: M. graminicola strain Cbx106 (SDHB_N225H); assay: as above; conditions: B_N225H, ratio IC50mutant/IC50WT
Description: as §1, §2

[5] = system: M. graminicola strain Bos59 (SDHB_H267Q); assay: as above; conditions: B_H267Q, ratio IC50mutant/IC50WT
Description: as §1, §2

[6] = system: M. graminicola strain Cbx29 (SDHB_H267L); assay: as above; conditions: B_H267L, ratio IC50mutant/IC50WT
Description: as §1, §2

[7] = system: M. graminicola strain Cbx28 (SDHB_H267Y); assay: as above; conditions: B_H267Y, strain Cbx28; ratio IC50mutant/IC50WT
Description: as §1, §2

[8] = system: M. graminicola strain Cbx56 (SDHB_R265P); assay: as above; conditions: B_R265P, ratio IC50mutant/IC50WT
Description: as §1, §2

[9] = system: M. graminicola strain Izm1 (SDHC_H152R); assay: as above; conditions: C_H152R, ratio IC50mutant/IC50WT
Description: as §1, §2

[10] = system: M. graminicola strain Cbx67 (SDHD_D129G); assay: as above; conditions: D_D129G, ratio IC50mutant/IC50WT
Description: as §1, §2

[11] = system: M. graminicola strain Cbx22 (SDHD_D129E); assay: as above; conditions: D_D129E, ratio IC50mutant/IC50WT
Description: as §1, §2

[12] = system: M. graminicola strain Flu41 (SDHB_S218F); assay: as above; conditions: B_S218F, ratio IC50mutant/IC50WT
Description: as §1, §2

[13] = system: M. graminicola strain Ol50 (SDHC_V88D); assay: as above; conditions: C_V88D, ratio IC50mutant/IC50WT
Description: as §1, §2

[14] = system: M. graminicola strain Flu29 (SDHD_D129T); assay: as above; conditions: D_D129T, ratio IC50mutant/IC50WT
Description: as §1, §2

[15] = system: M. graminicola strain Cbx12 (SDHC_L85P); assay: as above; conditions: C_L85P, ratio IC50mutant/IC50WT
Description: as §1, §2

[16] = system: M. graminicola strain Cbx96 (SDHB_H267N); assay: as above; conditions: B_H267N, ratio IC50mutant/IC50WT
Description: as §1, §2

[17] = system: M. graminicola strain Bos64 (SDHC_T79I); assay: as above; conditions: C_T79I, ratio IC50mutant/IC50WT
Description: as §1, §2

[18] = system: M. graminicola strain Flu21 (SDHC_A84I); assay: as above; conditions: C_A84I, ratio IC50mutant/IC50WT
Description: as §1, §2

[19] = system: M. graminicola strain Flu110 (SDHB_P220T); assay: as above; conditions: B_P220T, ratio IC50mutant/IC50WT
Description: as §1, §2

[20] = system: M. graminicola strain Cbx101 (SDHD_D129S); assay: as above; conditions: D_D129S, ratio IC50mutant/IC50WT
Description: as §1, §2

[21] = system: M. graminicola strain Cbx76 (SDHC_H145R); assay: as above; conditions: C_H145R, ratio IC50mutant/IC50WT
Description: as §1, §2

[22] = system: M. graminicola strain Flu75 (SDHB_P220L); assay: as above; conditions: B_P220L, ratio IC50mutant/IC50WT
Description: as §1, §2

[23] = system: M. graminicola strain Izm7 (SDHC_N86K); assay: as above; conditions: C_N86K, ratio IC50mutant/IC50WT
Description: as §1, §2

Structure (SMILES): CC(C)C1C2CCC1c1c(NC(=O)c3cn(C)nc3C(F)F)cccc12 (centres unmarked) [Isopyrazam]
- Frequency (of resistance development) ([1]; selection at 5× MSC, UV treatment 50 mJ cm^−2): 1.4E-07
- Frequency (of resistance development) ([1]; selection at 5× MSC, UV treatment 75 mJ cm^−2): 1.7E-07
- Frequency (of resistance development) ([1]; selection at MSC, UV treatment 50 mJ cm^−2): 3.2E-07
- Frequency (of resistance development) ([1]; selection at MSC, UV treatment 75 mJ cm^−2): 4.1E-07
- Resistance Factors (RFs) in vivo [2]: 3.5
- Resistance Factors (RFs) in vivo [3]: 61.2
- Resistance Factors (RFs) in vivo [4]: 13.6
- Resistance Factors (RFs) in vivo [5]: 12.5
- Resistance Factors (RFs) in vivo [6]: 152.2
- Resistance Factors (RFs) in vivo [7]: 16.1
- Resistance Factors (RFs) in vivo [8]: 7.6
- Resistance Factors (RFs) in vivo [9]: 133.9
- Resistance Factors (RFs) in vivo [10]: 22.9
- Resistance Factors (RFs) in vivo [11]: 6.8
- Resistance Factors (RFs) in vivo [12]: 15.0
- Resistance Factors (RFs) in vivo [13]: 36.5
- Resistance Factors (RFs) in vivo [14]: 33 and 33.5
- Resistance Factors (RFs) in vivo [15]: 10.0
- Resistance Factors (RFs) in vivo [16]: 4.5
- Resistance Factors (RFs) in vivo [17]: 15.8
- Resistance Factors (RFs) in vivo [18]: 8.8
- Resistance Factors (RFs) in vivo [19]: 3.8
- Resistance Factors (RFs) in vivo [20]: 10.8
- Resistance Factors (RFs) in vivo [21]: 27.6
- Resistance Factors (RFs) in vivo [22]: 4.8
- Resistance Factors (RFs) in vivo [23]: 464.4
